Data on two compounds can be found in US9657046B2, “Methods for the treatment and prevention of inflammatory diseases” (Children's Medical Center Corporation, priority 2010, dated 2017).

One experiment has as its system BALB/c mice. Briefly: OVA-induced AHR in adult mice treated with glycolipid at 2 weeks of age. The note with it: 2 wk old mice treated i.p. (α-C-GalCer 5 μg, α-GalCer 2 μg, PI57 50 or 100 μg, PBS30 50 μg); AHR induced 6 wks (42 days) later. In kind it is in vivo, mouse. The procedure: In FIGS. 6A-6B, two-week-old BALB/c mice (n=6-8/group) (6A) or Tbet^−/− mice (6B) (n=4-6 per group) received 5 μg […] (cGal), 2 μg α-GalCer, or vehicle. After OVA sensitization and challenge, AHR was measured on day 44. In FIG. 6C, donor mice were treated with α-C-GalCer (5 μg) or vehicle i.p. NKT cells served as donors, as in FIG. 4A (n=4 per group). Lung resistance (left) and cell counts in BAL (right) were assessed. […] In FIG. 6E, mice received PI57 (50 μg), α-GalCer (2 μg), or vehicle i.p., and lungs were examined 1 or 14 days later for CD4 and CD8 expression. In FIG. 6F, absolute numbers of CD4^+ NKT and DN NKT subsets from 6E were assessed. In FIG. 6G, BALB/c mice (n=5-8/group) received PI57 or vehicle i.p. Lung resistance (left) and BAL cells (right) were assessed. In FIG. 6H, BALB/c mice treated with PI57 (50 μg), PBS30 (Sphingomonas glycolipid) (50 μg), or vehicle i.p. were assessed for AHR as in 6G. In FIG. 6I, donor mice were treated with PI57 (50 μg) or vehicle i.p. NKT cells served as donors as in FIG. 4A. Lung resistance (left) and BAL cells (right) were assessed (n=4 per group). […] Data represent 2-3 independent experiments. *P<0.05, #P<0.05, ***P<0.001 versus vehicle-OVA (6C, 6G, and 6I), DN NKT saline (6F), and CD4^+ NKT saline (6F).
Induction of AHR and measurement of airway responsiveness in the OVA model.
To induce AHR, BALB/c mice were sensitized with 100 μg of OVA (Sigma-Aldrich) in alum administered i.p (on day 0). After sensitization, mice were exposed to intranasal antigen (50 μg OVA/day) or normal saline for 1 day (day 7; single dose challenge protocol), or for 3 consecutive days (days 7, 8, 9). AHR was assessed on the day after last OVA-challenge. Control mice received i.p. injection of PBS and intranasal administrations of normal saline.

The test system of experiment [1] is OVA-sensitized BALB/c mice. Briefly: Adoptive transfer of NKT cells from glycolipid-treated mice into OVA-sensitized BALB/c recipients (AHR, BAL). In kind it is in vivo, mouse. Particulars: OVA-sensitized WT recipients; for AHR in recipients of NKT cells from glycolipid-treated donors: donors treated i.p. at 2 wk (α-C-GalCer 5 μg, PI57 50 μg, or α-GalCer), NKT cells harvested 6 wks later.

The test system of the next experiment is NKT cells. The note with it: cited from earlier work.
Another experiment deals with pulmonary NKT cells. Briefly: Lung NKT cell subsets (CD4+, DN) by FACS after i.p. glycolipid in 2 week-old mice. In kind it is in vivo, mouse. The note with it: i.p. PI57 50 μg or α-GalCer 2 μg, lung 2 wks later. The procedure: In FIGS. 6A-6B, two-week-old BALB/c mice (n=6-8/group) (6A) or Tbet^−/− mice (6B) (n=4-6 per group) received 5 μg […] (cGal), 2 μg α-GalCer, or vehicle. After OVA sensitization and challenge, AHR was measured on day 44. In FIG. 6C, donor mice were treated with α-C-GalCer (5 μg) or vehicle i.p. NKT cells served as donors, as in FIG. 4A (n=4 per group). Lung resistance (left) and cell counts in BAL (right) were assessed. […] In FIG. 6E, mice received PI57 (50 μg), α-GalCer (2 μg), or vehicle i.p., and lungs were examined 1 or 14 days later for CD4 and CD8 expression. In FIG. 6F, absolute numbers of CD4^+ NKT and DN NKT subsets from 6E were assessed. In FIG. 6G, BALB/c mice (n=5-8/group) received PI57 or vehicle i.p. Lung resistance (left) and BAL cells (right) were assessed. In FIG. 6H, BALB/c mice treated with PI57 (50 μg), PBS30 (Sphingomonas glycolipid) (50 μg), or vehicle i.p. were assessed for AHR as in 6G. In FIG. 6I, donor mice were treated with PI57 (50 μg) or vehicle i.p. NKT cells served as donors as in FIG. 4A. Lung resistance (left) and BAL cells (right) were assessed (n=4 per group). […]
Cells were preincubated with anti-Fey blocking mAb (2.4G2) and washed before staining. […] Cells were analyzed on a BDCanto flow cytometer (BD Biosciences) using FlowJo 8.3.3 software (Tree Star, Inc.).
(In flow cytometry, cells or beads pass a laser one at a time.)

For the compound `CCCCCCCCCCCCCCCCCCCCCCCCCC(=O)N[C@@H](CC[C@H]1OC(CO)[C@H](O)C(O)C1O)[C@H](O)[C@H](O)CCCCCCCCCCCCCC` (stereo partly drawn) [α-C-GalCer, α-C-Galactosylceramide], in the experiment with BALB/c mice, the “protection against development of OVA-induced AHR (lung resistance)” value is on record as “protected the mice as adults (42 days later) from the development of OVA-induced AHR”. The “airway inflammation (BAL cells, lung sections) in recipients of NKT cells from glycolipid-treated donors” value in experiment [1] (donors treated i.p. at 2 wk (α-C-GalCer 5 μg, PI57 50 μg)) is “protected recipients against the development of AHR and airway inflammation”. The “AHR in recipients of NKT cells from glycolipid-treated donors” value in experiment [1] was “protected recipients against the development of AHR”. Besides, the “cytokine synthesis induced (IFN-γ, IL-4)” value in the experiment with NKT cells is “preferentially induces IFN-γ but not IL-4 synthesis”.

As to `CCCCCCCCCCCCCCCCCCCCCCCCCC(=O)N[C@@H](CO[C@H]1O[C@H](CO)[C@H](O)[C@H](O)[C@H]1O)[C@H](O)[C@H](O)CCCCCCCCCCCCCC` [α-GalCer, α-Galactosylceramide], the “protection against development of OVA-induced AHR (lung resistance)” value with BALB/c mice was “did not prevent OVA induced AHR”. For the same compound, the “AHR in recipients of NKT cells from glycolipid-treated donors” value in experiment [1] is listed as “reduced AHR slightly, but this was not statistically significant”. In the experiment with pulmonary NKT cells, the “number of NKT cells (CD4+ and DN subsets) in the lung” value is “increased both CD4^+ and DN NKT cells in the lungs”. Besides, the “cytokine synthesis induced (IFN-γ, IL-4)” value in the experiment on NKT cells is “induces production of both IFN-γ and IL-4”.
